From patent US20240397940A1, “COMPOSITIONS COMPRISING A SATURATED OR UNSATURATED ALIPHATIC ACID AND A NON-IONIC SURFACTANT FOR ENHANCING PENETRATION OF PESTICIDE COMPONENT” (TERRAMERA, INC., priority 2021, published 2024)

What was measured:
Type in all cases: in vitro ADME
[1] = test system: waxy cuticles of whole soybean leaves; assay: Franz cell leaf penetration of trans-2-Hexenoic acid, Mero (Example 15); settings: penetration ratio of trans-2-Hexenoic acid (1,500 ppm), azoxystrobin 343.5 ppm (Quadris) and Mero 31.3 ppm where included, 24 hours
Protocol: (§1) This ratio may be expressed based on:
Each donor solution comprised 1,500 ppm trans-2-Hexenoic acid. Certain donor solutions included a strobilurin fungicide, namely azoxystrobin. Such donor solutions comprised Quadris®, a commercially available fungicide from Syngenta Crop Protection comprising azoxystrobin. Such donor solutions comprised 343.5 ppm azoxystrobin.
(§2) The permeation period was 24 hours.

[2] = test system: waxy cuticles of whole soybean leaves; assay: Franz cell leaf penetration of trans-2-Hexenoic acid, Biosoft adjuvants (Example 2); settings: penetration ratio of trans-2-Hexenoic acid (1,500 ppm), azoxystrobin 343.5 ppm (Quadris) and adjuvant 1,000 ppm where included, 24 hours
Excerpt: as §1
Each donor solution comprised 1,500 ppm trans-2-Hexenoic acid. Certain donor solutions included a strobilurin fungicide, namely azoxystrobin. Such donor solutions comprised Quadris®, a commercially available fungicide from Syngenta Crop Protection comprising azoxystrobin. Such donor solutions comprised 343.5 ppm azoxystrobin. […] In this example, the adjuvants tested were non-ionic surfactants comprising C11 linear alcohol ethoxylates (available from Stepan Company of Northfield, IL as Biosoft® N1-5, Biosoft® N1-7, and Biosoft® N1-9).
as §2

[3] = test system: waxy cuticles of whole wheat leaves; assay: Franz cell leaf penetration of 3-Nonenoic acid (Example 5); settings: penetration ratio of 3-Nonenoic acid (500 ppm), epoxiconazole TGAI 50 ppm and adjuvant 1,000 ppm where included, 24 hours
Protocol: as §1
(§3) Several donor solutions were prepared to assess penetration of 3-Nonenoic acid across waxy cuticles of whole wheat leaves. Each donor solution comprised 500 ppm 3-Nonenoic acid. Certain donor solutions included an azole fungicide, namely epoxiconazole technical grade active ingredient (TGAI) fungicide, each at a rate of 50 ppm. Epoxiconazole is commercially available from MilliporeSigma, St. Louis, MO, USA, as a technical grade active ingredient. […] In this example, the adjuvants tested were non-ionic surfactants comprising C11 linear alcohol ethoxylates (available from Stepan Company of Northfield, IL as Biosoft® N1-5, Biosoft® N1-7, and Biosoft® N1-9).
(§4) The permeation period was 24 hours. […] The powderized leaf was mixed with acetone as a solvent.

[4] = test system: waxy cuticles of whole soybean leaves; assay: Franz cell leaf penetration of azoxystrobin, Mero (Example 14); settings: penetration ratio of azoxystrobin (343.5 ppm, Quadris), trans-2-Hexenoic acid 1,500 ppm and Mero 31.3 ppm where included, 24 hours
Protocol: as §1
Several donor solutions were prepared to assess penetration of a strobilurin fungicide, namely azoxystrobin, across waxy cuticles of whole soybean leaves. Each donor solution comprised Quadris®, a commercially available fungicide from Syngenta Crop Protection comprising azoxystrobin. Such donor solutions comprised 343.5 ppm azoxystrobin. Certain donor solutions included 1,500 ppm trans-2-Hexenoic acid.
as §2

[5] = test system: waxy cuticles of whole wheat leaves; assay: Franz cell leaf penetration of 5-Hexenoic acid (Example 4); settings: penetration ratio of 5-Hexenoic acid (1,000 ppm), pyraclostrobin 236 ppm (Headline EC) and adjuvant 1,000 ppm where included, 24 hours
Protocol: as §1
Several donor solutions were prepared to assess penetration of 5-Hexenoic acid across waxy cuticles of whole wheat leaves. Each donor solution comprised 1,000 ppm 5-Hexenoic acid (except where otherwise noted). Certain donor solutions included a strobilurin fungicide, namely pyraclostrobin. Such donor solutions comprised Headline® EC, a commercially available fungicide from BASF Corporation comprising pyraclostrobin. Such donor solutions comprised 236 ppm pyraclostrobin. […] In this example, the adjuvants tested were non-ionic surfactants comprising C11 linear alcohol ethoxylates (available from Stepan Company of Northfield, IL as Biosoft® N1-5, Biosoft® N1-7, and Biosoft® N1-9).
as §4

[6] = test system: waxy cuticles of whole wheat leaves; assay: Franz cell leaf penetration of epoxiconazole (Example 7); settings: 24 h, 50 ppm
Protocol: as §1
Several donor solutions were prepared to assess penetration of an azole fungicide, namely epoxiconazole, across waxy cuticles of whole wheat leaves. Epoxiconazole TGAI was provided in each donor solution at a rate of 50 ppm. Epoxiconazole is available from MilliporeSigma, St. Louis, MO, USA, and Shanghai Terppon Chemical Co., Ltd., Shanghai, China as a technical grade active ingredient. Certain donor solutions comprised 500 ppm 3-Nonenoic acid.
as §4

[7] = test system: waxy cuticles of whole wheat leaves; assay: Franz cell leaf penetration of pyraclostrobin, Headline SC (Example 8); settings: penetration ratio of pyraclostrobin (236 ppm, Headline SC), 5-Hexenoic acid 1,000 ppm and adjuvant 1,000 ppm where included, 24 hours
Protocol: as §1
(§5) Several donor solutions were prepared to assess penetration of a strobilurin fungicide active ingredient, namely pyraclostrobin, across waxy cuticles of whole wheat leaves. Each donor solution comprised Headline® SC, a commercially available fungicide from BASF Corporation comprising pyraclostrobin. Such donor solutions comprised 236 ppm pyraclostrobin. Certain donor solutions included an aliphatic acid, namely 5-Hexenoic acid. Such donor solutions comprised 1,000 ppm 5-Hexenoic acid. […] In this example, the adjuvants tested were non-ionic surfactants comprising C11 linear alcohol ethoxylates (available from Stepan Company of Northfield, IL as Biosoft® N1-5, Biosoft® N1-7, and Biosoft® N1-9).
as §4

[8] = test system: waxy cuticles of whole wheat leaves; assay: Franz cell leaf penetration of pyraclostrobin, Headline EC (Example 6); settings: penetration ratio of pyraclostrobin (236 ppm, Headline EC), 5-Hexenoic acid 1,000 ppm and adjuvant 1,000 ppm where included, 24 hours
Protocol: as §1
as §5, with “comprised Headline® EC, a commercially” for “comprised Headline® SC, a commercially”, “ppm pyraclostrobin. Pyraclostrobin is also commercially available in end-user product form from BASF Corporation as Headline® SC fungicide. Certain donor” for “ppm pyraclostrobin. Certain donor”, “solutions included 1,000 ppm” for “solutions included an aliphatic acid, namely 5-Hexenoic acid. Such donor solutions comprised 1,000 ppm”
as §4

[9] = test system: waxy cuticles of whole wheat leaves; assay: Franz cell leaf penetration of 3-Octenoic acid (Example 3); settings: penetration ratio of 3-Octenoic acid (500 ppm), epoxiconazole TGAI 50 ppm and adjuvant 1,000 ppm where included, 24 hours
Protocol: as §1
as §3, with “3-Octenoic” for “3-Nonenoic”, “N1-5” for “N1-5, Biosoft® N1-7,”, “Biosoft®) N1-7).” for “Biosoft® N1-9).”
as §4

For `CCC/C=C/C(=O)O` [trans-2-hexenoic acid, trans-2-Hexenoic acid], which “Aliphatic Acid Penetration” value [1] is on record?
The value was 13.2%.

What about the “Aliphatic Acid Penetration” value [2] of the same compound?
The value was 13.2%.

For `CCCCCC=CCC(=O)O` [3-Nonenoic acid], which “Aliphatic Acid Penetration” value [3] is on record?
Its value is 17.6%.

`CO/C=C(/C(=O)OC)c1ccccc1Oc1cc(Oc2ccccc2C#N)ncn1` [Azoxystrobin, azoxystrobin] was tested. Which “Pesticidal Active Ingredient Penetration” value [4] did it give?
Its value is 0.7%.

Which “Aliphatic Acid Penetration” value [5] does the source give for `C=CCCCC(=O)O` [5-Hexenoic acid] here?
The value was 6.8%.

`Fc1ccc([C@]2(Cn3cncn3)O[C@H]2c2ccccc2Cl)cc1` (racemic) [Epoxiconazole, epoxiconazole] was tested. Which “Pesticidal Active Ingredient Penetration” value [6] did it give?
Its value is 18.2%.

With `COC(=O)N(OC)c1ccccc1COc1ccn(-c2ccc(Cl)cc2)n1` [Pyraclostrobin, pyraclostrobin] as the compound, how does the “Pesticidal Active Ingredient Penetration” value [7] read?
The value was 7.1%.

And the “Pesticidal Active Ingredient Penetration” value [8]?
The value was 7.5%.

How did the “Aliphatic Acid Penetration” value [9] turn out when `CCCCC=CCC(=O)O` [3-octenoic acid, 3-Octenoic acid] was run?
Its value is 13.4%.
